Test results as given in patent US12077503B2, “Substituted cyclic amides and their use as herbicides” (FMC CORPORATION, priority 2015, dated 2024).

Tests used:
Format in all cases: in vivo
[1] = test system: sedge, umbrella (small-flower umbrella sedge, Cyperus difformis); assay: Test B flooded paddy test; conditions: Flood, 250 g ai/ha; 0 to 100 scale where 0 is no effect and 100 is complete control; 13 to 15 d
Summary of the method: (§1)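 Percent control, visually estimated after 13–15 d in the greenhouse on a 0–100 basis, compares treated pots with untreated ones; compound was put into paddy water 3 cm above the soil when plants had two leaves.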

rice (Oryra sativa) = assay: Test B flooded paddy test; conditions: Flood, 250 g ai/ha; 0 to 100 scale where 0 is no effect and 100 is complete control; 13 to 15 d
Summary of the method: as §1

[2] = test system: barnyardgrass (Echinochloa crus-galli); assay: Test B flooded paddy test; conditions: Flood, 250 g ai/ha; 0 to 100 scale where 0 is no effect and 100 is complete control; 13 to 15 d
Summary of the method: as §1

[3] = test system: ducksalad (Heteranthera limosa); assay: Test B flooded paddy test; conditions: Flood, 250 g ai/ha; 0 to 100 scale where 0 is no effect and 100 is complete control; 13 to 15 d
Summary of the method: as §1

corn (Zea mays) = assay: Test A postemergence; conditions: for Corn plant response rating: 125 g ai/ha, postemergence, visual injury rating on 0 to 100 scale (0 no effect, 100 complete control), approx. 10 d; for Plant response rating, Corn: Postemergence, 500 g ai/ha, 0 to 100 scale where 0 is no effect and 100 is complete control
Summary of the method: (§2)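 Each rating is a visual injury score from 0 to 100 given about 10 d after treatment, judged against untreated controls kept alongside in the greenhouse. In loam soil–sand blend, seeds got a preemergence directed soil spray, while postemergence plants were 2 to 10 cm tall at spraying.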

[4] = test system: blackgrass (Alopecurus myosuroides); assay: Test A postemergence; conditions: for Blackgrass plant response rating: 125 g ai/ha, postemergence, visual injury rating on 0 to 100 scale (0 no effect, 100 complete control), approx. 10 d; for Plant response rating, Blackgrass: Postemergence, 500 g ai/ha, 0 to 100 scale where 0 is no effect and 100 is complete control
Summary of the method: as §2

[5] = test system: giant foxtail (Setaria faberii); assay: Test A postemergence; conditions: for Foxtail, Giant plant response rating: 125 g ai/ha, postemergence, visual injury rating on 0 to 100 scale (0 no effect, 100 complete control), approx. 10 d; for Plant response rating, Foxtail, Giant: Postemergence, 500 g ai/ha, 0 to 100 scale where 0 is no effect and 100 is complete control
Summary of the method: as §2

[6] = test system: Galium (catchweed bedstraw, Galium aparine); assay: Test A postemergence; conditions: for Galium plant response rating: 125 g ai/ha, postemergence, visual injury rating on 0 to 100 scale (0 no effect, 100 complete control), approx. 10 d; for Plant response rating, Galium: Postemergence, 500 g ai/ha, 0 to 100 scale where 0 is no effect and 100 is complete control
Summary of the method: as §2

[7] = test system: wheat (Triticum aestivum); assay: Test A postemergence; conditions: for Wheat plant response rating: 125 g ai/ha, postemergence, visual injury rating on 0 to 100 scale (0 no effect, 100 complete control), approx. 10 d; for Plant response rating, Wheat: Postemergence, 500 g ai/ha, 0 to 100 scale where 0 is no effect and 100 is complete control
Summary of the method: as §2

Kochia (Kochia scoparia) [8] = assay: Test A postemergence; conditions: for Kochia plant response rating: 125 g ai/ha, postemergence, visual injury rating on 0 to 100 scale (0 no effect, 100 complete control), approx. 10 d; for Plant response rating, Kochia: Postemergence, 500 g ai/ha, 0 to 100 scale where 0 is no effect and 100 is complete control
Summary of the method: as §2

[9] = test system: barnyardgrass (Echinochloa crus-galli); assay: Test A postemergence; conditions: for Barnyardgrass plant response rating: 125 g ai/ha, postemergence, visual injury rating on 0 to 100 scale (0 no effect, 100 complete control), approx. 10 d; for Plant response rating, Barnyardgrass: Postemergence, 500 g ai/ha, 0 to 100 scale where 0 is no effect and 100 is complete control
Summary of the method: as §2

[10] = test system: pigweed (Amaranthus retroflexus); assay: Test A postemergence; conditions: for Pigweed plant response rating: 125 g ai/ha, postemergence, visual injury rating on 0 to 100 scale (0 no effect, 100 complete control), approx. 10 d; for Plant response rating, Pigweed: Postemergence, 500 g ai/ha, 0 to 100 scale where 0 is no effect and 100 is complete control
Summary of the method: as §2

[11] = test system: ragweed (common ragweed, Ambrosia elatior); assay: Test A postemergence; conditions: for Ragweed plant response rating: 125 g ai/ha, postemergence, visual injury rating on 0 to 100 scale (0 no effect, 100 complete control), approx. 10 d; for Plant response rating, Ragweed: Postemergence, 500 g ai/ha, 0 to 100 scale where 0 is no effect and 100 is complete control
Summary of the method: as §2

[12] = test system: ryegrass, Italian (Italian ryegrass, Lolium multiflorum); assay: Test A postemergence; conditions: for Ryegrass, Italian plant response rating: 125 g ai/ha, postemergence, visual injury rating on 0 to 100 scale (0 no effect, 100 complete control), approx. 10 d; for Plant response rating, Ryegrass, Italian: Postemergence, 500 g ai/ha, 0 to 100 scale where 0 is no effect and 100 is complete control
Summary of the method: as §2

[13] = test system: giant foxtail (Setaria faberii); assay: Test A preemergence; conditions: Preemergence; for Plant response rating, Foxtail, Giant: 125 g ai/ha, visual injury after approximately 10 d, 0 to 100 scale where 0 is no effect and 100 is complete control; for Foxtail, Giant plant response rating (0 to 100 scale, 0 is no effect, 100 is complete control): 500 g ai/ha, visual injury approx. 10 d
Summary of the method: as §2

Kochia (Kochia scoparia) [14] = assay: Test A preemergence; conditions: Preemergence; for Plant response rating, Kochia: 125 g ai/ha, visual injury after approximately 10 d, 0 to 100 scale where 0 is no effect and 100 is complete control; for Kochia plant response rating (0 to 100 scale, 0 is no effect, 100 is complete control): 500 g ai/ha, visual injury approx. 10 d
Summary of the method: as §2

[15] = test system: barnyardgrass (Echinochloa crus-galli); assay: Test A preemergence; conditions: Preemergence; for Plant response rating, Barnyardgrass: 125 g ai/ha, visual injury after approximately 10 d, 0 to 100 scale where 0 is no effect and 100 is complete control; for Barnyardgrass plant response rating (0 to 100 scale, 0 is no effect, 100 is complete control): 500 g ai/ha, visual injury approx. 10 d
Summary of the method: as §2

[16] = test system: pigweed (Amaranthus retroflexus); assay: Test A preemergence; conditions: Preemergence; for Plant response rating, Pigweed: 125 g ai/ha, visual injury after approximately 10 d, 0 to 100 scale where 0 is no effect and 100 is complete control; for Pigweed plant response rating (0 to 100 scale, 0 is no effect, 100 is complete control): 500 g ai/ha, visual injury approx. 10 d
[17] = test system: ragweed (common ragweed, Ambrosia elatior); assay: Test A preemergence; conditions: Preemergence; for Plant response rating, Ragweed: 125 g ai/ha, visual injury after approximately 10 d, 0 to 100 scale where 0 is no effect and 100 is complete control; for Ragweed plant response rating (0 to 100 scale, 0 is no effect, 100 is complete control): 500 g ai/ha, visual injury approx. 10 d
Summary of the method: as §2

[18] = test system: ryegrass, Italian (Italian ryegrass, Lolium multiflorum); assay: Test A preemergence; conditions: Preemergence; for Plant response rating, Ryegrass, Italian: 125 g ai/ha, visual injury after approximately 10 d, 0 to 100 scale where 0 is no effect and 100 is complete control; for Ryegrass, Italian plant response rating (0 to 100 scale, 0 is no effect, 100 is complete control): 500 g ai/ha, visual injury approx. 10 d
Summary of the method: as §2

Compound | Plant response rating, Sedge, Umbrella [1] | Plant response rating, Rice (rice (Oryra sativa)) | Plant response rating, Barnyardgrass [2] | Plant response rating, Ducksalad [3] | Corn plant response rating (corn (Zea mays)) | Plant response rating, Corn (corn (Zea mays)) | Blackgrass plant response rating [4] | Plant response rating, Blackgrass [4] | Foxtail, Giant plant response rating [5] | Plant response rating, Foxtail, Giant [5] | Galium plant response rating [6] | Plant response rating, Galium [6] | Wheat plant response rating [7] | Plant response rating, Wheat [7] | Kochia plant response rating (Kochia (Kochia scoparia) [8]) | Plant response rating, Kochia (Kochia (Kochia scoparia) [8]) | Barnyardgrass plant response rating [9] | Plant response rating, Barnyardgrass [9] | Pigweed plant response rating [10] | Plant response rating, Pigweed [10] | other results
COc1ccc(N2CC(c3cccc(C(F)(F)F)c3)C(C(=O)Nc3ccccc3F)C2=O)cc1 (stereo not drawn) [Compound 505] | 0 | 0 | 0 | 0 | 0 | 0 | 0 | 0 | 0 | 0 | 0 | 0 | 0 | 0 | 0 | 0 | 0 | 0 | 0 | 10 | Ragweed plant response rating [11]: 0; Plant response rating, Ragweed [11]: 0; Ryegrass, Italian plant response rating [12]: 0; Plant response rating, Ryegrass, Italian [12]: 0; Plant response rating, Foxtail, Giant [13]: 0; Foxtail, Giant plant response rating (0 to 100 scale, 0 is no effect, 100 is complete control) [13]: 0; Plant response rating, Kochia (Kochia (Kochia scoparia) [14]): 0; Kochia plant response rating (0 to 100 scale, 0 is no effect, 100 is complete control) (Kochia (Kochia scoparia) [14]): 0; Plant response rating, Barnyardgrass [15]: 0; Barnyardgrass plant response rating (0 to 100 scale, 0 is no effect, 100 is complete control) [15]: 0; Plant response rating, Pigweed [16]: 0; Pigweed plant response rating (0 to 100 scale, 0 is no effect, 100 is complete control) [16]: 0; Plant response rating, Ragweed [17]: 0; Ragweed plant response rating (0 to 100 scale, 0 is no effect, 100 is complete control) [17]: 0; Plant response rating, Ryegrass, Italian [18]: 0; Ryegrass, Italian plant response rating (0 to 100 scale, 0 is no effect, 100 is complete control) [18]: 0
CN1CC(c2cccc(Br)c2)C(C(=O)Nc2cccc(F)c2F)C1=O (stereo not drawn) [Compound 520] | 0 | 0 | 65 | 100 | 60 | 70 | 70 | 70 | 80 | 80 | 60 | 60 | 50 | 70 | 60 | 70 | 90 | 90 | 40 | 50 | Ragweed plant response rating [11]: 30; Plant response rating, Ragweed [11]: 30; Ryegrass, Italian plant response rating [12]: 40; Plant response rating, Ryegrass, Italian [12]: 80; Plant response rating, Foxtail, Giant [13]: 90; Foxtail, Giant plant response rating (0 to 100 scale, 0 is no effect, 100 is complete control) [13]: 90; Plant response rating, Kochia (Kochia (Kochia scoparia) [14]): 50; Kochia plant response rating (0 to 100 scale, 0 is no effect, 100 is complete control) (Kochia (Kochia scoparia) [14]): 70; Plant response rating, Barnyardgrass [15]: 90; Barnyardgrass plant response rating (0 to 100 scale, 0 is no effect, 100 is complete control) [15]: 90; Plant response rating, Pigweed [16]: 30; Pigweed plant response rating (0 to 100 scale, 0 is no effect, 100 is complete control) [16]: 80; Plant response rating, Ragweed [17]: 0; Ragweed plant response rating (0 to 100 scale, 0 is no effect, 100 is complete control) [17]: 50; Plant response rating, Ryegrass, Italian [18]: 30; Ryegrass, Italian plant response rating (0 to 100 scale, 0 is no effect, 100 is complete control) [18]: 50
